We go through three molecules from ChEMBL document CHEMBL4665643 (Bioorg Med Chem Lett, 2019).

Data set [1] addresses CDK8/Cyclin C (Homo sapiens) (UniProt P49336+P24863). The data set is described as follows: Inhibition of tracer 236 binding to recombinant human His-tagged full length CDK8/Cyclin C expressed in baculovirus expression system at 0.1 uM incubated for 60 mins by Lanthascreen assay relative to control. For orientation: TR-FRET usually uses a lanthanide donor and a delayed reading to cut background.

In data set [2] the target is T1, Aurora kinase A (Homo sapiens) (UniProt O14965).
T1 sequence (whole entry): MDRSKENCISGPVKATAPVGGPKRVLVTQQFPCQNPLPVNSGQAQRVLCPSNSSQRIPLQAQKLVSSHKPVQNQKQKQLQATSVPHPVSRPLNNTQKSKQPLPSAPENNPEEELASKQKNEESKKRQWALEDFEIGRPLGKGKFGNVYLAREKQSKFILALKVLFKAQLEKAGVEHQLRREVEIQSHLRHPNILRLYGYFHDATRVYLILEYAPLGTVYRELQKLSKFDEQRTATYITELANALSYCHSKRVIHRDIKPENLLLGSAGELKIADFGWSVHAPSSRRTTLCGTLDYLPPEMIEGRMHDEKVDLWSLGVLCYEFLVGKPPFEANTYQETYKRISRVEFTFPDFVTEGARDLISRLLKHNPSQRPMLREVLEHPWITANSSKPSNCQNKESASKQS
The data set is described as follows: Inhibition of recombinant human His-tagged full length Aurora A expressed in baculovirus expression system using Ser/Thr 01 as substrate at 0.1 uM incubated for 60 mins by Z'-Lyte assay relative to control.

Data set [3] deals with Mitogen-activated protein kinase 9 (Homo sapiens) (UniProt P45984). Put plainly: Inhibition of recombinant human His-tagged full length JNK2 expressed in baculovirus expression system using Ser/Thr 04 as substrate at 0.1 uM incubated for 60 mins by Z'-lyte assay relative to control.
Chain of Mitogen-activated protein kinase 9 (Homo sapiens) (P45984 whole entry, looked up): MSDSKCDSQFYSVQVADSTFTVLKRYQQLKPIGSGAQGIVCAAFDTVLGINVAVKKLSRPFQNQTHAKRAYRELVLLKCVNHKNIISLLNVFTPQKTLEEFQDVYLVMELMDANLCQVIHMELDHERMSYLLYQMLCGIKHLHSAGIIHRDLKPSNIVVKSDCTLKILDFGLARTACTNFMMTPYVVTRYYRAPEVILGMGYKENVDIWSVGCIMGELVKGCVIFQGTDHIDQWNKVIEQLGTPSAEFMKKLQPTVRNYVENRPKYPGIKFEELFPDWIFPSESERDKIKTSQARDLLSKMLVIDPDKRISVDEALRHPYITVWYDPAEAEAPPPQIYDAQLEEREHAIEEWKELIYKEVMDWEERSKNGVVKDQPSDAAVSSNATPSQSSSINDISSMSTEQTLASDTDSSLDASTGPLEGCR
Data set [4] addresses Focal adhesion kinase 1 (Homo sapiens) (UniProt Q05397). The data set is described as follows: Inhibition of recombinant human GST-tagged full length FAK expressed in baculovirus expression system using Tyr 07 as substrate at 0.1 uM incubated for 60 mins by Z'-Lyte assay relative to control.
In data set [5] the target is T2, Mitogen-activated protein kinase 13 (Homo sapiens) (UniProt O15264).
T2 sequence (whole entry): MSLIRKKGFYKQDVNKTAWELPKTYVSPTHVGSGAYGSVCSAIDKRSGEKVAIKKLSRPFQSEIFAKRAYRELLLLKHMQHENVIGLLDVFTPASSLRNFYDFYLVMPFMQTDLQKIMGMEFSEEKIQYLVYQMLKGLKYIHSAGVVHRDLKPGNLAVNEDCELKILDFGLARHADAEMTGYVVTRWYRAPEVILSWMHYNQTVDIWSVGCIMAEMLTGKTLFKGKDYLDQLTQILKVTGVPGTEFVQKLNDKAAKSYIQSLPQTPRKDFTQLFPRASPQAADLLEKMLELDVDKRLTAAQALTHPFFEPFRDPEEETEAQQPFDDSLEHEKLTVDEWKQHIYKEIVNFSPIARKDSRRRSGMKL
The data set is described as follows: Inhibition of recombinant human His-tagged full length p38 delta expressed in baculovirus expression system using Ser/Thr 03 as substrate at 0.1 uM incubated for 60 mins by Z'-Lyte assay relative to control.

For data set [6], the system named is RAF proto-oncogene serine/threonine-protein kinase (Homo sapiens), P04049 [Y340D,Y341D]. Put plainly: Inhibition of recombinant human GST-tagged RAF1 Y340D/Y341D double mutant (306 to 648 residues) expressed in baculovirus expression system using Ser/Thr 03 as substrate at 0.1 uM incubated for 60 mins by Z'-Lyte assay relative to control.
Chain of RAF proto-oncogene serine/threonine-protein kinase (Homo sapiens), P04049 [Y340D,Y341D] (P04049 whole entry Y340D/Y341D, the tested form may be a part): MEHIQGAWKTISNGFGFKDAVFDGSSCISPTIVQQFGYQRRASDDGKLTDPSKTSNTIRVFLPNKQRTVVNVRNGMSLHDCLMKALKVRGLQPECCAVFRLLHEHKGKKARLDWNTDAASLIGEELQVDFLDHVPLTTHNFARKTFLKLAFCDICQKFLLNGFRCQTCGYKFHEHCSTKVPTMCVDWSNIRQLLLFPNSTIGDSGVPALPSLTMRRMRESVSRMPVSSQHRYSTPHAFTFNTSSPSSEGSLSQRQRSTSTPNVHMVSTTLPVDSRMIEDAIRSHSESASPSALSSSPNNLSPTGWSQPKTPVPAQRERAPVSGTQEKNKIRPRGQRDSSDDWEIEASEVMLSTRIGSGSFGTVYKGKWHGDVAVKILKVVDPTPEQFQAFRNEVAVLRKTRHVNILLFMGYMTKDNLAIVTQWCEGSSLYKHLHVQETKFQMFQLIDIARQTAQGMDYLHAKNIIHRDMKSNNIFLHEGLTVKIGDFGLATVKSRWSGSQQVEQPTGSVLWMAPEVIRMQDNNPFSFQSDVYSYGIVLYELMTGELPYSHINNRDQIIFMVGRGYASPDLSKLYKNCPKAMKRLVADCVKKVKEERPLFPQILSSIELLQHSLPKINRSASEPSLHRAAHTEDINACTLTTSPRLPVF
Data set [7] concerns the target Mitogen-activated protein kinase 11 (Homo sapiens) (UniProt Q15759). Put plainly: Inhibition of recombinant human His-tagged full length p38 beta expressed in baculovirus expression system using Ser/Thr 15 as substrate at 0.1 uM incubated for 60 mins by Z'-Lyte assay relative to control.
Data set [8] addresses T3, Serine/threonine-protein kinase TAO2 (Homo sapiens) (UniProt Q9UL54).
T3 sequence (whole entry): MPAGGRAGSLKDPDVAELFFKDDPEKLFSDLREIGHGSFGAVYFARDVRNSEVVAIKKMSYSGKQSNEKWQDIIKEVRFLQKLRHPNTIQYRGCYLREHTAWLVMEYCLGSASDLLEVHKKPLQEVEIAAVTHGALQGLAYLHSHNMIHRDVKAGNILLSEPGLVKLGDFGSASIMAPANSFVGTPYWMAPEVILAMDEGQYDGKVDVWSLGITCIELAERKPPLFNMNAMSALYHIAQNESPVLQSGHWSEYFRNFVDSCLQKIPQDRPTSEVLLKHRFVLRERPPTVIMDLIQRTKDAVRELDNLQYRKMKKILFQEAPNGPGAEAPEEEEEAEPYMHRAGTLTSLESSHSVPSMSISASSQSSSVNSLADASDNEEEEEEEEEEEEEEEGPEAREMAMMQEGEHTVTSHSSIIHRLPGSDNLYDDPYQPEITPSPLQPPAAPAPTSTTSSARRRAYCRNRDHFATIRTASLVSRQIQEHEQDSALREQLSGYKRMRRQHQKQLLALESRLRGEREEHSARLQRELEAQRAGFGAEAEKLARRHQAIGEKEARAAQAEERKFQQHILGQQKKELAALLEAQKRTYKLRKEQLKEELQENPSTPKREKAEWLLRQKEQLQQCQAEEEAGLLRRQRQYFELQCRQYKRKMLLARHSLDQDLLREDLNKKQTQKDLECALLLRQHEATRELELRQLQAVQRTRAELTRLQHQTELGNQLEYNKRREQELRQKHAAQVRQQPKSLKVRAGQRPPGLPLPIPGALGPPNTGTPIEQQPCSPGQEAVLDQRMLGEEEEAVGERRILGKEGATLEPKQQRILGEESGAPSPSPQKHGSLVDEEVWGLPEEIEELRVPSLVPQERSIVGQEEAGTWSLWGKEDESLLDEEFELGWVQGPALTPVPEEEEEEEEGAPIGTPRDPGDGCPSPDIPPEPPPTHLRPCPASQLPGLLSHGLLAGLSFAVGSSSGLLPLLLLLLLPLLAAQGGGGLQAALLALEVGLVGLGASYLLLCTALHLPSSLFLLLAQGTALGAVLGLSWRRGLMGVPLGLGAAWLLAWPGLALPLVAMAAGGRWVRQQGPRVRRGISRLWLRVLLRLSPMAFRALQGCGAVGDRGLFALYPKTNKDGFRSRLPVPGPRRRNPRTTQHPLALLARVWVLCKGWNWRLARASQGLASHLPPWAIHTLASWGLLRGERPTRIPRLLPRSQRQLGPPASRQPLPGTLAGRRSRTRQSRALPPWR
The data set is described as follows: Inhibition of recombinant human GST-tagged TAO2 (1 to 314 residues) expressed in baculovirus expression system using Ser/Thr 07 as substrate at 0.1 uM incubated for 60 mins by Z'-Lyte assay relative to control.

Data set [9] has as its target Mitogen-activated protein kinase 1 (Homo sapiens) (UniProt P28482). The data set is described as follows: Inhibition of recombinant human GST-tagged full length ERK2 expressed in baculovirus expression system using Ser/Thr 03 as substrate at 0.1 uM incubated for 60 mins by Z'-Lyte assay relative to control.
A short description of the next data set: in vitro. The settings on record: dog, MDCK.

Chain of Mitogen-activated protein kinase 11 (Homo sapiens) (Q15759 whole entry): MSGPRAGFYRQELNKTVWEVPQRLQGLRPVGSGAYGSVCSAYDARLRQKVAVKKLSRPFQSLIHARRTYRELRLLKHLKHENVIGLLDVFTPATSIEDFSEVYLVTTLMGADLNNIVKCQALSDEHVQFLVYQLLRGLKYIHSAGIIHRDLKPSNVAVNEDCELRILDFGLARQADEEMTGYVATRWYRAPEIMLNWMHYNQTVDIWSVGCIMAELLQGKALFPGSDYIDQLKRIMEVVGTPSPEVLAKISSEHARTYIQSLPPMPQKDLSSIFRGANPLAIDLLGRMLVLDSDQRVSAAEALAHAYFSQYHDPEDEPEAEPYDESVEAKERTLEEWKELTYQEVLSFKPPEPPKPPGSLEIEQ
Chain of Focal adhesion kinase 1 (Homo sapiens) (Q05397 2-1052 limits assumed): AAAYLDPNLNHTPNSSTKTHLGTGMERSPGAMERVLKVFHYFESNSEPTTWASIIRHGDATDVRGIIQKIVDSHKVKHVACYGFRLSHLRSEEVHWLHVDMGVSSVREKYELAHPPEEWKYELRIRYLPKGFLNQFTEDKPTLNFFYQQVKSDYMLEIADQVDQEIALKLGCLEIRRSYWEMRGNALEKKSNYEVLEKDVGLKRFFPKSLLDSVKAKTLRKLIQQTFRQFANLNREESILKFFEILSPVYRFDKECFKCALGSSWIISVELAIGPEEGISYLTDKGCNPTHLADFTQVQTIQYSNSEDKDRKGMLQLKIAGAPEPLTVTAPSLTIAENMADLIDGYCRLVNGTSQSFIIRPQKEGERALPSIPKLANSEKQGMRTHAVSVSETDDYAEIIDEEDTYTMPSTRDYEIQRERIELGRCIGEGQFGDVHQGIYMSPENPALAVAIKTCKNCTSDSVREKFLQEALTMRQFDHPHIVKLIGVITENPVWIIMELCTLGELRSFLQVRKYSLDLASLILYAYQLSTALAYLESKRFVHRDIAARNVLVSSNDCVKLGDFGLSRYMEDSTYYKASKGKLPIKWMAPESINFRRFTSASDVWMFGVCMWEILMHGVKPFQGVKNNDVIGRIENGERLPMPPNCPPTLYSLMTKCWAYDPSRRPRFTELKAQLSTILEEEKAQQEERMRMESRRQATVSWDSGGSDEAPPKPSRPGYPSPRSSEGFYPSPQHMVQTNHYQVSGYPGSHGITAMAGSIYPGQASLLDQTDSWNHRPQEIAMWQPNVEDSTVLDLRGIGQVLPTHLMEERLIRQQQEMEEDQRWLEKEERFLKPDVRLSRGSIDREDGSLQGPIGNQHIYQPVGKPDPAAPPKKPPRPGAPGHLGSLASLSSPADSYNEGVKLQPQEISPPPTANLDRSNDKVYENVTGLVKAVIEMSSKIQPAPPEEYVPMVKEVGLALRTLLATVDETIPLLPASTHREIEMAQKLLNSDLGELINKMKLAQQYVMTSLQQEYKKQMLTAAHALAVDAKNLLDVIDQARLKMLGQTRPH
Chain of Mitogen-activated protein kinase 1 (Homo sapiens) (P28482 whole entry): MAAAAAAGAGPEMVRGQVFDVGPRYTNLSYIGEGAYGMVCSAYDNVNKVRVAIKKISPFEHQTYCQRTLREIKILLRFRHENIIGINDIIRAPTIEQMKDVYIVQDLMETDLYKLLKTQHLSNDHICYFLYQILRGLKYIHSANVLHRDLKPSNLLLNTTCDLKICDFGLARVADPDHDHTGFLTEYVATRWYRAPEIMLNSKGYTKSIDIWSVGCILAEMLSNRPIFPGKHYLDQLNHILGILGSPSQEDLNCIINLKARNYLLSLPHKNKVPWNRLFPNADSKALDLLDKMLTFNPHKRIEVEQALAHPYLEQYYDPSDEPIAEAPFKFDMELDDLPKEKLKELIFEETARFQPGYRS
Description for in vitro: Efflux ratio of apparent permeability basolateral to apical over apical to basolateral side in MDCK cells at 10 uM incubated upto 180 mins by LC/MS-MS analysis

Broadly, the inhibition is the relative decrease from the control value, in per cent. By efflux ratio is commonly meant a quotient of directional permeabilities that is used to spot active efflux. Consider `Cn1cc(NC(=O)c2cnn3cccnc23)c(-c2cc(Cl)ccc2OC(F)F)n1`, for which the inhibition in [1] was 14%; in [2], 13%; in [3] it was -2%; in data set [4], 15%; in data set [5], 0%; in data set [6], 3%. The figures for the inhibition in data set [7], in [8] and in [9] were 11%, 4% and 4%, respectively. The efflux ratio at 3 h, 10 µM in “in vitro” was determined as 0.55.

Consider `O=C(Nc1c[nH]nc1-c1cc2ccccc2cc1OC(F)F)c1cnn2cccnc12`, for which the inhibition was found to be 24% in data set [1]; 24% in [2]; 0% in [3]; 20% in data set [4]; 6% in data set [5]; 7% in data set [6]. Further, the inhibition in data set [7] is 5%; in data set [8], 8%; in [9], -4%. Moreover, in the data set “in vitro”, the efflux ratio at 3 h, 10 µM came to 1.2.

Regarding `O=C(Nc1c[nH]nc1-c1cc(Cl)ccc1OC(F)F)c1cnn2cccnc12`, the inhibition in data set [1] was 38%; in [2], 20%; in data set [3], 16%; in [4], 14%; in data set [5] it was 10%; in data set [6], 9%. Moreover, the inhibition in data set [7] came out at 9%; in data set [8], 1%; in [9], 1%. In addition, the efflux ratio at 3 h, 10 µM in the data set “in vitro” amounted to 1.1.
